US7728146B2, “Enzyme inhibitors” (Probiodrug AG, priority 2006, dated 2010)

What was measured:
male Sprague Dawley rats [1] = assay: Tetradic encounter test; assay type: in vivo, rat; details: acute
Experimental: Example 130b was dissolved in 0.5% Natrosol and administered acutely p.o. (gavage) 40 minutes before behavioural testing. Example 130b was administered in doses of 0.3, 1.0 and 3.0 mg/kg in a volume of 5 ml/kg, each.
Chlordiazepoxide was dissolved in 0.9% NaCl and administered acutely i.p. 30 minutes before behavioural testing with a dose of 3 mg/kg in a volume of 1 ml/kg (test group TG 2, see below). The solution was prepared freshly every day.
(§1) 216 male Sprague Dawley rats. The animals were 6 weeks old at the start of the study. They were housed in groups of 4 animals (“acute animals”) or in single cages (“chronic animals”) at 12 h/12 h light/dark (start of the light phase at 2 a.m.), 20° C., 60% rH. Animals were provided by Elevage Janvier, France.
Animals were kept in group cages until compound administration. Each two animals derived from the same home cage and were treated the same way. During the time from compound administration to the beginning of the test, animals were kept in single cages for 40 minutes.
The tetradic encounter test was conducted according to the protocol of Wolffgramm (1990). Four rats were placed for 15 minutes in an open field arena of 1 m×1 m; all four animals of an encounter group were treated in the same way, they received either test compound, reference compound, or vehicle. Each two animals were from the same home cage. The open field was illuminated by dim red light (3-4 Lux). Rats were familiar with the open field and their encounter partners by means of three prior training sessions (no compound administration). Testing (compound administration) started at 2:20 p.m. (dark phase). All animals were marked individually by means of black symbols on their back. Behaviour was recorded on videotapes. Each animal was tested once.
Raw data were provided as videotapes and protocol sheets of application and test time. From the videotapes the trajectory of the animal's movement was tracked and coordinates and time stamps were continually noted in a data file. The resulting file was transferred to a computer program for further analysis.
The following parameters were calculated for the whole test phase (15 minutes): • Total distance travelled (m) • Use of available space (%) • Portion of time spent in the centre (%) • Portion of time spent in the corners (%) • Mean distance to the encounter mates (cm) • Distribution of spatial distance to the encounter mates • Dynamics of spatial distance to the encounter mates (cross-distance course) Social Behaviour
Raw data were provided as videotapes and protocol sheets of application and test time. From the videotapes the social behaviour of each rat was rated by an experienced ethologist using a list of predefined behavioural patterns. The observer was blind to the animal's treatment. The resulting file containing the time series of behavioural patterns was transferred to a computer program for further analysis.
The following parameters were calculated for the whole test phase (15 minutes): • Number of non-agonistic social acts (N) • Number of aggressive acts (N) • Number of defensive acts (N) • Time spent with non-agonistic social acts (%) • Time spent with aggressive acts (%) • Time spent with defensive acts (%) • Behavioural synchrony
To quantify inter-individual synchrony, coefficients of synchrony were calculated that base on rank correlation coefficients. For this purpose, the time series of behavioural patterns was subdivided into equidistant interval sections (here: 1 s intervals). To calculate synchrony coefficients, the user must define “pattern sets of interest”. Each set contained one or more behavioural patterns that were taken together for the analysis (e.g. “friendly contact” or “all kinds of social interaction”). […]

male Sprague Dawley rats [2] = assay: Circadian courses of activity, feeding and drinking behaviour; body weight, food and fluid consumption during chronic administration; assay type: in vivo, rat; details: vs vehicle
Experimental: Example 130b as hydrochloride salt was dissolved in tap water in concentrations of 0.03, 0.1 and 0.3 mg/ml. Assuming a daily fluid intake of approx. 30 ml per animal (animal's weight: approx. 300 g), these concentrations should result in doses of approx. 3, 10 and 30 mg/kg/day. The solutions were prepared freshly every day. During chronic administration, solution offer was limited to 40 ml per day for each animal.
Imipramine was dissolved 0.5% Natrosol and administered once daily i.p. for 8 days (test group TG 11, see below) with a dose of 15 mg/kg/day in a volume of 1 ml/kg.
as §1
During the 7 days lasting period of chronic compound administration, animals were kept singly. On the first day they were kept in single Macrolon home cages. On the next day they were transferred to activity monitoring cages and kept there for 3 days. For the following 3 days they returned to their home cages (single housing).
Animals received the test compound chronically via the drinking fluid. The reference compound Imipramine was given i.p. (one administration per day, one hour before the respective tests). Fluid supply was restricted to 40 ml per day for all test groups. On the first day of chronic test compound exposure, animals were kept singly in standard single home cages to enable an individual assessment of test compound intake. On the second day, animals were transferred to infrared monitoring cages for 3 days. Food and fluid offer were the same as in the home cage. Measuring rearing activity near fluid bottles and food grid enabled an assessment of the time structure of food and water (compound) consumption. Behavioural observation started one hour before the beginning of the dark phase (2 p.m.). After 22 hours, body weight, food and fluid consumption were measured. 2 hours later, the next recording started.
Raw data were provided as computer files accompanied by written protocol sheets. As the animals were still adapting to the environment and administration the time courses of the following parameters were calculated only for the last day of registration: • Food and fluid intake (time %) • Number of feeding and […] bouts • Meal pattern parameters reflecting e.g. the duration and recurrence of feeding and drinking bouts • Total distance travelled (cm/min) • Small movements (cm/min) • Distance travelled with rapid locomotion (cm/min) • Distance travelled with slow locomotion (cm/min) • Immobility (time %) • Use of available space (%) • Locomotor stereotypies (score, first hour of the dark phase only) • Rearing (time %) • Number of rearing acts (N) Feeding and Drinking Bouts and Bout-Related Analysis:
On the basis of high-resolution infrared beam recordings, feeding and drinking is identified by means of beam interruption in the upper frame near to the positions of food or water. Feeding or drinking acts are then defined as temporally contingent behavioural pattern separated from each other by intervals not longer than 0.5 seconds. Normally, several acts form a feeding or drinking bout. The intervals within a bout are definitely shorter than between subsequent bouts. A threshold interval can be set to distinguish between intra-bout and inter-bout intervals.
Stereotyped locomotion was assessed by means of statistical comparisons between the observed locomotor sequences (as described by the movement from one of the 4×4 subsquares to another) and a “random walk”. The comparison is performed at 5 different levels:
The coefficient of locomotor stereotypies (SC, in %) at each level has a value of SC=0 when there are no regularities within the movement pattern (random walk). […]

[3] = vs vehicle, Chlordiazepoxide 3 mg/kg i.p., Example 130b low and high dose (0.3 and 3.0 mg/kg p.o.)
[4] = vs vehicle, Example 130b high dose (3.0 mg/kg p.o.)
[5] = circadian registration, Imipramine 15 mg/kg/day i.p., Example 130b approx. 3, 10, 30 mg/kg/day
[6] = Imipramine 15 mg/kg/day i.p., Example 130b hydrochloride approx. 3, 10, 30 mg/kg/day via drinking fluid

Structure (SMILES): NCc1c(-c2ccc(Cl)cc2Cl)ncn1Cc1ccsc1 [Example 130b, (4-(2,4-dichlorophenyl)-1-((thiophen-3-yl)methyl)-1H-imidazol-5-yl)methanamine]
- locomotor activity (male Sprague Dawley rats [1]; tetradic encounter, Chlordiazepoxide 3 mg/kg i.p., Example 130b 0.3-3.0 mg/kg p.o.): altered locomotor activity
- inter-individual synchrony of behaviour (male Sprague Dawley rats [1]; vs vehicle, Chlordiazepoxide 3 mg/kg i.p., Example 130b 0.3, 1.0, 3.0 mg/kg p.o. (especially the high dose increased synchrony)): strong effects
- distance to the encounter mates (male Sprague Dawley rats [1]; [3]): significantly higher distance
- number of defensive acts (male Sprague Dawley rats [1]; [3]): statistically significant increase
- time spent in a distance of 75-100 cm to encounter mates (male Sprague Dawley rats [1]; vs vehicle, Chlordiazepoxide 3 mg/kg i.p., Example 130b low and medium dose (0.3 and 1.0 mg/kg p.o.)): higher amount
- time spent in a distance of 25-50 cm to encounter mates (male Sprague Dawley rats [1]; vs vehicle, Chlordiazepoxide 3 mg/kg i.p., Example 130b low dose (0.3 mg/kg p.o.)): significantly lower amount of time
- time spent with friendly (non-agonistic) social behaviour (male Sprague Dawley rats [1]; vs vehicle, Chlordiazepoxide 3 mg/kg i.p., Example 130b medium dose (1.0 mg/kg p.o.)): tended to increase
- time spent in a distance of 50-75 cm to encounter mates (male Sprague Dawley rats [1]; [4]): higher amount
- time spent in a distance of less than 25 cm to encounter mates (male Sprague Dawley rats [1]; [4]): significantly lower amount of time
- time spent in the centre of the open field (male Sprague Dawley rats [1]; [4]): significantly increased
- usage of available space (male Sprague Dawley rats [1]; [4]): significantly increased
- distance travelled during the first five minutes of the test (male Sprague Dawley rats [1]; vs vehicle, Example 130b low and high dose (0.3 and 3.0 mg/kg p.o.)): statistically significant increase
- time spent in a distance of more than 100 cm to encounter mates (male Sprague Dawley rats [1]; vs vehicle, Example 130b low dose (0.3 mg/kg p.o.)): higher amount
- cumulated number of drinking bouts (male Sprague Dawley rats [2]; 22 hours of measurement, Example 130b approx. 3, 10, 30 mg/kg/day): dose-dependently reached a lower total number
- horizontal and vertical (locomotor) activity (male Sprague Dawley rats [2]; [5]): no statistically significant effects
- time accessing food and water (fluid) (male Sprague Dawley rats [2]; [5]): did not differ
- locomotor stereotypies (stereotypy index) (male Sprague Dawley rats [2]; first hour of the dark phase, Imipramine: level 2, 3 and 4 stereotypies, Example 130b: usage of available space or stereotypy index): no statistically significant effects
- body weight (gain) (male Sprague Dawley rats [2]; [6]): not affected
- fluid intake (male Sprague Dawley rats [2]; [6]): dose-dependently led to a reduction
- food intake (male Sprague Dawley rats [2]; [6]): not affected
